ChEMBL document CHEMBL3507680, “University of Dundee, Gates Library screen for HepG2 cell viability”

Assay: Human HepG2 cell viability assay in 384 well format
Assay type: toxicity, cell-based
Set-up: dose 125 nL, time 70.5 hour; cytotoxicity at 70.5 h: concentration not given beside the values
Settings: HepG2 cells, read-out: Inhibition

SMILES	cytotoxicity at 70.5 h
CS(=O)(=O)N1CCCC1C(=O)Nc1cnc2n1CCCC2 (centres undefined)	-20.4%
CNC(=O)c1cn2cc(-c3ccc(F)cc3)n(CC=C(C)C)c(=O)c2n1	19.4%
Cc1cc(CN(C)C(=O)C2CCC(=O)N(CC3CCCCC3)C2)n[nH]1 (centres undefined)	-8.5%
CN(Cc1noc2c1CCCC2)C(=O)Cn1c(=O)cnc2ccccc21	-12.8%
O=C(c1cc(F)cc(Cl)c1)N1CCN(CCO)[C@@H]2CS(=O)(=O)C[C@@H]21	-0.458%
c1csc(N2CCN(Cc3cc4n(n3)CCNC4)CC2)n1	1.93%
Cc1cnccc1-n1nc(C(C)C)nc1CCN(C)S(C)(=O)=O	-1.14%
O=C1N(Cc2cccc(F)c2F)CCCC1(O)CNCc1ccccn1 (centres undefined)	-2.1%
O=C(c1ccc(C2CCCN2C(=O)c2ccoc2)s1)N1CCOCC1 (centres undefined)	-1.44%
CC(=O)Nc1ccc(Cl)c(C(=O)N(C)C(C)c2nccs2)c1 (centres undefined)	-3.55%
CCOC(=O)N1CCC(NC(=O)c2cccc(C3CCCNC3)c2)CC1 (centres undefined)	-24.4%
O=C(c1cccnc1)N1C[C@@H]2CC[C@H](C1)N(Cc1ccc(F)cc1Cl)C2	2.53%
CN1CC(c2ccccc2)CC2(CCN(Cc3ncc[nH]3)CC2)C1 (centres undefined)	-9.18%
O=C(CCCN1CCCCC1)N[C@H](C(=O)O)c1cccc(F)c1F	-6.96%
Oc1ccc(-c2c(-c3ccccc3)ncn2C2CCNC2)cc1 (centres undefined)	6.28%
Cc1cncc(C(=O)N2CCCC(O)(CO)C2)c1 (centres undefined)	-7.18%
CCN(CC)C(CNS(=O)(=O)NCc1ccccc1)c1ccco1 (centres undefined)	-2.25%
N#Cc1cccnc1N1CCCC(CO)(CCOc2ccccc2)C1 (centres undefined)	-7.83%
COc1ccccc1OC1CN(C(=O)Cc2c(C)nc(C)[nH]c2=O)C1	-2.42%
Cc1cc(C)n(C2CN(c3ncnc4c3CCNCC4)C2)n1	-9%
Cc1[nH]c2c(C)ccc(C)c2c1CC(=O)NCCCNc1cccnc1	-9.64%
Cc1ccc(CCNC(=O)Cn2nc(C)n(Cc3ccccc3)c2=O)s1	3.12%
COCc1cc(NCCc2ccccn2)n2nccc2n1	29%

SMILES	cytotoxicity at 70.5 h
COc1cccc(C(=O)N2CCN(C(=O)CCn3ccnc3)CC2)c1	-5.33%
CC(C)c1nc(CN(C)Cc2ccc(F)cc2)cs1	-22.4%
COc1ccc(OCc2nc(C(=O)N3C[C@H](O)[C@@H](N(C)C)C3)co2)cc1	-4.57%
CN(C)CCNC(=O)c1cc2n(n1)CCN(C(=O)c1ccc[nH]1)C2	-7.1%
CN(CC1CCCN1C)c1nccc(C2CCCC2)n1 (centres undefined)	6.3%
CC(C)n1cnnc1CN(C)C(=O)c1cnn2ccccc12	4.09%
Cn1ncc2c(N3CCN(CCO)CC3)nc(C3CCCC3)nc21	-14.2%
CCOC(=O)N1CCN(C(=O)C(CC)n2cccn2)CC1 (centres undefined)	5.86%
CSc1nccc(N2CCC3(CCCN(CC4CC4)C3)C2)n1 (centres undefined)	-3.08%
O=C1CCCCN1CCC(=O)N1CCCCC1c1ccc(F)cc1 (centres undefined)	-6.63%
Cc1ccccc1C(=O)N1C[C@@H]2[C@@H](CN(C)CCc3ccccn3)[C@@H]2C1	-8.54%
O=C(N1CCC(Oc2ccncc2)CC1)C1(c2ccc(F)cc2)CC1	-3.22%
CN1C(=O)C2(CCN(c3nccc4occc34)CC2)c2ccccc21	9.71%
COc1ccc(-n2ncc(C(C)NCc3cnc(SC)nc3)c2C)cc1 (centres undefined)	-3.63%
O=C(CC1=CCCCC1)N1CCC(Cn2cc(CCO)nn2)CC1	-11.5%
COCCN1CCN(C(C(=O)O)c2ccc(SC)cc2)CC1 (centres undefined)	-5.21%
CCCn1ncc(CN2CCCCC2CCCOC)c1C (centres undefined)	-2.59%
Cc1nc(C(C)NC(=O)COc2ccc(F)cc2)n[nH]1 (centres undefined)	-7.22%
COCc1cc(NCC(F)(F)F)n2nccc2n1	-12.3%
CCCC(=O)Nc1cccc(C(=O)N(C)CCCC2CCCO2)c1 (centres undefined)	2.48%
CC(Cn1cccn1)n1cnc2cccc(Cl)c2c1=O (centres undefined)	7.81%
CCN(Cc1cnn(C)c1)C[C@H]1CC[C@@H](Cc2ccc(OC)nc2)O1	-8.42%
COc1ccc(Oc2ncccc2F)cc1CN1CCCC1	3.51%

SMILES	cytotoxicity at 70.5 h
CN(CC(=O)N1CC(C)(C)[C@](O)(C2CC2)C1)Cc1cccnc1	-3.42%
O=C(O)Cc1cccc(-n2ccnc2-c2ccc(F)c(Cl)c2)c1	-0.808%
CC(C)n1cnnc1CN(C)C(=O)c1ccccc1N1CCOCC1	9.11%
O=C(c1cccnc1SC/C=C/c1ccccc1)N1CCOCC(O)C1 (centres undefined)	1.08%
CCCn1cc(S(=O)(=O)N[C@H]2CN(CC(N)=O)C[C@@H]2C2CC2)cn1	-9.29%
Cc1cccnc1[C@H](C)NC(=O)Cc1cc2c(cc1Cl)OCCO2	32.1%
O=c1cc(C2CCNCC2)nc(CCCc2ccccc2)[nH]1	-3.39%
CC(=O)c1cc(C(=O)N2CCC3(CC2)Nc2ccccc2NC3=O)cs1	-7.09%
Cc1nc2c(c(NC3CCN(Cc4cccnc4)CC3)n1)CCNCC2	-18.8%
COCCN(C)C[C@@H]1CN(C(=O)c2c(C)cccc2OC)C[C@@H]1CO	-4.17%
Cc1ccc2nc(CN3CCCC3c3cccnc3)cc(O)c2c1 (centres undefined)	-2.21%
Cc1noc(CN2CC(=O)N(C)c3ccccc3C2=O)n1	-8.97%
Nc1nc2c(c(NC3CCCC3)n1)CCN(C(=O)C1CCOC1)CC2 (centres undefined)	11.4%
O=C(CCc1ccccc1)C1CCCN(C(=O)c2cncc(Cl)c2)C1 (centres undefined)	-25.5%
CCc1cnc(N)nc1NCc1ccc(OC)c(OC)c1	-1.08%
Cc1ccc(C(=O)O)c(N2CC(C)(C)[C@@](C)(O)C2)n1	-10.6%
Cc1cc(N2CCOC(C(F)(F)F)C2)nc(-c2ccccc2)n1 (centres undefined)	-24.8%
Cc1ccsc1C(CNC(=O)c1cc(=O)c2ccccc2[nH]1)N(C)C (centres undefined)	-9.06%
O=C(NCc1nc[nH]n1)c1cc(COc2ccccc2F)[nH]n1	-3.89%
O=C(O)[C@@H]1CN(CCOCCO)C[C@H]1c1ccccc1	30%
COCCN(Cc1nc2c(cnn2C)c(=O)[nH]1)C(C)COC (centres undefined)	-7.19%
CCCNC(=O)CN1CCC(NC(=O)c2cc(CC)ccc2O)CC1	-6.46%
Cc1ccc2oc(C(=O)N3CCCC(n4nc(C)nc4C)C3)cc2n1 (centres undefined)	-9.11%

SMILES	cytotoxicity at 70.5 h
CC(C)CN(C)Cc1nc2c(cnn2C)c(=O)[nH]1	12.1%
CC(C)N(Cc1ccccn1)Cc1nc2c(cnn2C)c(=O)[nH]1	-6.49%
Cc1ccc(CN(Cc2nc3c(cnn3C)c(=O)[nH]2)C(C)C)s1	-0.211%
CN(Cc1ccccn1)C(=O)c1nc(S(C)(=O)=O)n2ccccc12	1.32%
CN1CCOC(CNC(=O)COc2ccc(F)cc2F)C1 (centres undefined)	0.568%
CC(O)CNCc1c(C(C)C)nn(C)c1N1CCOCC1 (centres undefined)	-0.301%
CCNC(=O)CNCc1c(C(C)C)nn(C)c1N1CCOCC1	-2.6%
CS(=O)(=O)c1ccc(C(=O)N2CCCC(n3cccn3)C2)cc1 (centres undefined)	0.802%
Cc1nnc2n1CCN(C(C(=O)NC1CC1)c1ccc(F)cc1)C2 (centres undefined)	-3.54%
Fc1ccc(-c2nc(CNC3CCc4ncnn4C3)cs2)cc1 (centres undefined)	0.825%
COc1ccc(S(=O)(=O)NC(=O)COc2ccc3c(c2)CCC3)cc1	17.6%
CN(Cc1ccccc1)CC(O)Cn1cnc2c(Cl)cc(Cl)cc2c1=O (centres undefined)	-9.03%
Cc1nn(C)c(C)c1CC(=O)N1CCc2nnc(N(C)C)cc2C1	-5.78%
Cc1c(F)cc(C(=O)O)cc1S(=O)(=O)Nc1ccc(C#N)cc1	19.6%
CNC(=O)CN1CCC(NC(=O)N(C)Cc2c(C)noc2C)CC1	26.1%
O=C1CN(C(=O)c2cccc(OCc3cscn3)c2)CCN1	-1.69%
Cc1noc(C)c1CN(C)C(=O)NC1CCC(O)CC1 (centres undefined)	-8.86%
CCOc1ccc(Cl)c(C(=O)NCCC(=O)Nc2ccccn2)n1	-6.63%
CCOc1ccc(Cl)c(C(=O)NCCS(N)(=O)=O)n1	22%
Cc1ccc(C(=O)N2CCN(CCc3ccccc3)CC2)c(=O)[nH]1	-7.75%
Cc1noc(C)c1CN(C)C(=O)NC1CCOCC1	21%
Cc1noc(C2CCCN(C(=O)CCCNc3ncccn3)C2)n1 (centres undefined)	3.05%
Cc1noc(C2CCN(C(=O)CCCNc3ncccn3)CC2)n1	1.13%

SMILES	cytotoxicity at 70.5 h
Cc1cc(C2CCCN2Cc2ccn(C)c(=O)c2)on1 (centres undefined)	-3.44%
c1cc(-c2nc(CN3CCc4c(ncn4C4CC4)C3)cs2)cs1	-8.75%
O=C(Nc1ccc(OC2CCCC2)cc1)C1CCCN1c1nccs1 (centres undefined)	26.8%
Cc1[nH]ncc1C(=O)N1CCCN(Cc2nccn2C(C)C)CC1	-1.07%
O=C(c1ccon1)N1CCCC(n2cncn2)C1 (centres undefined)	-1.78%
NC(=O)c1cc(C2CCCN(CCOc3ccc(F)cc3)C2)n[nH]1 (centres undefined)	-2.25%
NC(=O)c1cc(C2CCCN(CCCOc3ccc(F)cc3)C2)n[nH]1 (centres undefined)	4.69%
O=C(c1cc(Cl)cc2cccnc12)N1CCN(CCO)CC1	-8.63%
CC(C)n1ccnc1CN1CCCN(C(=O)c2cscn2)CC1	-2.53%
CCc1nc(C2CCCN2CCCS(N)(=O)=O)no1 (centres undefined)	-3.37%
CCOc1ccc(C2CCCN2C(=O)NCCn2ccnc2)cc1 (centres undefined)	-1.63%
CN(C)c1cc(C(=O)N2CCCN(c3cccnn3)CC2)ccn1	-9.96%
CC(=O)NC1CCCN(Cc2ccn(C)c(=O)c2)C1 (centres undefined)	-9.51%
CCOC1CCN(C(=O)Nc2ccc(=O)n(C)c2)CC1	25%
CN(C)c1cc(C(=O)N2CCCCC2)ccn1	0.476%
O=C(NCC1CC1)Nc1ccc(OCC(F)(F)F)nc1	-9.95%
CC(C)N1CC(C(=O)NCc2cccnc2-n2cccn2)CC1=O (centres undefined)	-11%
COc1cccc(-n2nnc(C(=O)N3CCN(C(C)=O)CC3)c2C)c1	-6.81%
O=C(Nc1nccs1)NC1CCN(Cc2ccccn2)CC1	-12.4%
CC(C)c1nnc(NC(=O)NC2CCN(Cc3ccccc3)C2)s1 (centres undefined)	-2.21%
CCC1c2ccsc2CCN1C(=O)NCCc1ccccn1 (centres undefined)	-9.75%
CCC1c2ccsc2CCN1C(=O)NCc1ccc(C)nc1 (centres undefined)	-10.2%
